{
  "source": "paper PMC13470012",
  "about": "“Long-term inhibition of lysosomal glucocerebrosidase activity promotes GPX4 stability and inhibits ferroptosis in dopaminergic neurons” (Cell Death & Disease, 2026)",
  "target": "T1, lysosomal glucocerebrosidase (Homo sapiens, UniProt P04062)",
  "T1 construct": "gene GBA1",
  "T1 sequence (P04062 40-536)": "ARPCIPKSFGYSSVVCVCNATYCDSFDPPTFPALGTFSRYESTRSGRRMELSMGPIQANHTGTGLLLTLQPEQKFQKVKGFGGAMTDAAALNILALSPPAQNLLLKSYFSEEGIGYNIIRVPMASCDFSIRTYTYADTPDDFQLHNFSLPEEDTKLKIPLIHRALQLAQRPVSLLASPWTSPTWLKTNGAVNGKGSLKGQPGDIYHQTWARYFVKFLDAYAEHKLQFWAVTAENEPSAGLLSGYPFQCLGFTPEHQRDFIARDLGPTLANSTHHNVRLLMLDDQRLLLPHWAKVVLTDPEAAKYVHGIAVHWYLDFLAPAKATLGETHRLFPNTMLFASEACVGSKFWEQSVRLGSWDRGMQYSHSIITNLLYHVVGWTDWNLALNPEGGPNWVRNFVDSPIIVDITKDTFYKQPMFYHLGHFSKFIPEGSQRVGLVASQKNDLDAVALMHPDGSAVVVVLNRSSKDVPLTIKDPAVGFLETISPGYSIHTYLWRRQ",
  "test": "fluorogenic (4-methylumbelliferone) glucocerebrosidase activity assay in lysates of CBE-treated human LUHMES cells, […] h dose range",
  "assay_type": "cell-based",
  "data": [
    {"smiles": "O[C@H]1[C@H](O)[C@@H](O)[C@@H]2O[C@@H]2[C@@H]1O", "note": "[conduritol-beta-epoxide]", "values": [
      {"measurement": "IC50", "value": "~9", "unit": "µM"}
    ]}
  ]
}
